Columns and labels:
[1] = target: T1, Tyrosine-protein phosphatase non-receptor type 9 (Homo sapiens, UniProt P43378); assay: Inhibition of PTPMEG2 (unknown origin) expressed in Escherichia coli using pNPP substrate after 5 mins by spectrophotometric analysis
T1 sequence (P43378 whole entry): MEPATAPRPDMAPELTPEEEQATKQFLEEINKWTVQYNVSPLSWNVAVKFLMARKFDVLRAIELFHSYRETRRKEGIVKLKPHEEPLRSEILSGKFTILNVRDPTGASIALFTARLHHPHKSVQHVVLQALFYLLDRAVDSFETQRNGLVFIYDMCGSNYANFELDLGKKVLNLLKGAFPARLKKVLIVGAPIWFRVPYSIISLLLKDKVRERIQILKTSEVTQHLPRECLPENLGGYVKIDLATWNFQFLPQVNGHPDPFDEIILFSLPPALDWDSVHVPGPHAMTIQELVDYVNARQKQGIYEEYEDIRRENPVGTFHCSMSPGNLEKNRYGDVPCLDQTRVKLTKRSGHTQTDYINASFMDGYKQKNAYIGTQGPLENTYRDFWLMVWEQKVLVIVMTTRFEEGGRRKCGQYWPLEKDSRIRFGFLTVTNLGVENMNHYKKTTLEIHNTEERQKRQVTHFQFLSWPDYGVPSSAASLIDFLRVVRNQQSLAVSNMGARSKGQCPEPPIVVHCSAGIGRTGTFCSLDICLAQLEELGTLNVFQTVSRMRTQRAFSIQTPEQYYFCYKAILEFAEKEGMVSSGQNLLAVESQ

[2] = target: T2, Tyrosine-protein phosphatase non-receptor type 2 (Homo sapiens, UniProt P17706); assay: Inhibition of TCPTP (unknown origin) expressed in Escherichia coli using pNPP substrate after 5 mins by spectrophotometric analysis
T2 sequence (P17706 whole entry): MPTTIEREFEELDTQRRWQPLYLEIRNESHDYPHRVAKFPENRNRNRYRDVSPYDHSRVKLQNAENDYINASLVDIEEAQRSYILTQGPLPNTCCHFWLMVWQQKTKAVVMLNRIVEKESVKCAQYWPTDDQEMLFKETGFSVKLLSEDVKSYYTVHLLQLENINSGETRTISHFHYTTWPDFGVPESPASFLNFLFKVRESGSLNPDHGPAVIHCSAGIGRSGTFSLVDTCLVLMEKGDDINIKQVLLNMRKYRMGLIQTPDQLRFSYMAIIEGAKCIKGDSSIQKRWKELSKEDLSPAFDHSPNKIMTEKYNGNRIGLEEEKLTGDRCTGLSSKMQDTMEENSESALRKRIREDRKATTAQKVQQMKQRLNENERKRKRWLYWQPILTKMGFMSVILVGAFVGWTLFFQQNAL

[3] = target: T3, Receptor-type tyrosine-protein phosphatase C (Homo sapiens, UniProt P08575); assay: Inhibition of CD45 (unknown origin) expressed in Escherichia coli using pNPP substrate after 5 mins by spectrophotometric analysis
T3 sequence (P08575 whole entry): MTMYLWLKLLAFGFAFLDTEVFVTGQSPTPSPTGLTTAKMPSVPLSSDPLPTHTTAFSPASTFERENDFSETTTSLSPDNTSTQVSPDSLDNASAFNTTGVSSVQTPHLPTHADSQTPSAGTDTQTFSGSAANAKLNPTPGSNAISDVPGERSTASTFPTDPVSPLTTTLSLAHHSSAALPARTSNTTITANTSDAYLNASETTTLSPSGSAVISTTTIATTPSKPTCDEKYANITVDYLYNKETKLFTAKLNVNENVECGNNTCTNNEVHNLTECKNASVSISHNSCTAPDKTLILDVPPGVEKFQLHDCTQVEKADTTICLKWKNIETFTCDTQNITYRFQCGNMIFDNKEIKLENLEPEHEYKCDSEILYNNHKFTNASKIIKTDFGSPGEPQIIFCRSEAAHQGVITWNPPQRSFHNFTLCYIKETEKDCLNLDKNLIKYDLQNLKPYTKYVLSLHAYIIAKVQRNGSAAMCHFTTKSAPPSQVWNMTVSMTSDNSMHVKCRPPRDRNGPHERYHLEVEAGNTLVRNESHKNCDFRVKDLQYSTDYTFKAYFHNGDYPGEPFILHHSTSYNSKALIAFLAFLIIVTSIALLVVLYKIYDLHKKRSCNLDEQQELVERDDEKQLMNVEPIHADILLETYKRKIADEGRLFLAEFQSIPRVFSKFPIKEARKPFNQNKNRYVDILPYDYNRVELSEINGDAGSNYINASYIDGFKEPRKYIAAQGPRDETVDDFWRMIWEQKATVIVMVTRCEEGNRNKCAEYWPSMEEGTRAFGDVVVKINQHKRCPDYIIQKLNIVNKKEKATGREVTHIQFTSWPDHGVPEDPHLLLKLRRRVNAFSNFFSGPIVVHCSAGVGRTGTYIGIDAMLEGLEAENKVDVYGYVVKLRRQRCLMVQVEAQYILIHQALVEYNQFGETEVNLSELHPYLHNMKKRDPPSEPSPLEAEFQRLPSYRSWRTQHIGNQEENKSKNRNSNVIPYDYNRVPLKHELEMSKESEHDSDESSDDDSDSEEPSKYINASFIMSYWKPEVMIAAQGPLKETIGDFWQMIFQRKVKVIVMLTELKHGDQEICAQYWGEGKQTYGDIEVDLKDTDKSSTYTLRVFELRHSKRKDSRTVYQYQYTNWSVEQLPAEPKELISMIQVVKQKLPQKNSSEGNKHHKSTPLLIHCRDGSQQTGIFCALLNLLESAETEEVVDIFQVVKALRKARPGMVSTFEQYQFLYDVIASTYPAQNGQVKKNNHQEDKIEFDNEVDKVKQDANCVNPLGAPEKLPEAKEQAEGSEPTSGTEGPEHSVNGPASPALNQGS

Row | Structure (SMILES) | IC50 [1] | IC50 [2] | IC50 [3]
1 | C[C@]12CCC(=O)C=C1CC[C@@H]1[C@@H]2CC[C@@]2(C)[C@H]1CC[C@]2(O)C#Cc1c(-c2ccccc2)oc2cc(O)c(C(=O)O)cc12 | > 100 µM | > 50 µM | > 100 µM
2 | O=C(O)c1cc2c(/C=C\c3cc(F)cc(F)c3)c(-c3ccccc3)oc2cc1O | 9.2 µM | 9.5 µM | 13.1 µM
3 | C#Cc1c(-c2ccccc2)oc2cc(O)c(C(=O)O)cc12 | 85 µM | > 50 µM | 80 µM
4 | O=C(O)c1cc2c(CCc3ccc(Oc4ccccc4)cc3)c(-c3ccccc3)oc2cc1O | 7.7 µM | 11.8 µM | 14.2 µM
5 | O=C(O)c1cc2c(CCc3cccc(F)c3)c(-c3ccccc3)oc2cc1O | 110 µM | 33 µM | 120 µM
6 | O=C(O)c1cc2c(CCc3ccc(OC(F)(F)F)cc3)c(-c3ccccc3)oc2cc1O | 8.4 µM | 8.9 µM | 18.9 µM
7 | O=C(O)c1cc2c(CCc3cccc(C(F)(F)F)c3)c(-c3ccccc3)oc2cc1O | 8.6 µM | 10 µM | 10.1 µM
8 | O=C(O)c1cc2c(C#CCO)c(-c3ccccc3)oc2cc1O | > 100 µM | > 100 µM | > 100 µM

From ChEMBL document CHEMBL2311454, “Discovery and evaluation of novel inhibitors of mycobacterium protein tyrosine phosphatase B from the 6-Hydroxy-benzofuran-5-carboxylic acid scaffold” (J Med Chem, 2013)
